# Reference: US11129836B2, “PAR-4 agonists for the treatment of cancer” (Cipla Limited, priority 2016, dated 2021)
# Key:
# [1] = test system: Mouse embryonic fibroblast cells; assay: Assay to analyse non-cytotoxic concentration (CellTiter 96 AQueous One cell proliferation assay); assay type: cell-based; conditions: up to 48 hours, highest concentration of 125 μM
# Procedure: Mouse embryonic fibroblast cells were plated in 96-well cell culture plates (2×10^4 cells/well) and were treated with drug/s at various concentrations. […] After the incubation anti-proliferative activity of test compounds was measured using ProMega Cell Titer aqueous one solution cell proliferation assay kit, viz. CellTiter 96® AQueous One Solution Reagent. Cells were incubated for 1-4 hours at 37° C., 5% CO2 incubator and absorbance was measured at 490 nm using a plate reader. IC50 values were determined by plotting compound concentration versus cell viability.
# PAR-4 [2] = assay: PAR-4 secretion assay, Western blot of conditioned media and lysate; assay type: cell-based, mouse
# Procedure: Material: DMEM media, FBS, Mouse embryonic fibroblast cells, PAR-4 antibody, Antirabbit IgG-HRP, Collagen A1 antibody, B-actin antibody, Antimouse IgG HRP
# Six well plate seeded (2 ml per well) with Mouse embryonic fibroblast cells in DMEM+10% FBS. The plate was incubated for 16-18 hrs, 37° C. 5% CO2.
# Drugs to be tested are diluted with suitable solvent to obtain 25 mM concentration. Media from cells is discarded and replaced with DMEM media with 0.1% FBS. Compound added to the cells at final concentration of 25 μM.
# Conditioned media (CM-supernatant) is collected from each well and centrifuged at 1000 rpm/5 mins to remove cell debris. After centrifugation the media was poured in concentration filters (Amicon ultracentrifuge tube with cutoff 10 Kda) and again centrifuged at 4500 rpm/15 mins at 4° C. The media was concentrated to 100 μl and then mixed with 50 μl of loading dye. The mixture was maintained in a 100° C. dry bath/water bath for 10 mins. SDS-PAGE and a western blot was performed of the samples using broad range molecular weight marker.
# PAR-4 [3] = conditions: mouse embryonic fibroblast (MEF) cells, at micromolar levels; cited from earlier work
SMILES,toxicity in Mouse Embryonic fibroblast cells [1],"PAR-4 secretion (FIG. 1, Western blot) (PAR-4 [2]; mouse embryonic fibroblast cells)","increase in the secretion of intracellular PAR-4 (PAR-4 [2]; mouse embryonic fibroblast cells (lysate), compared to DMSO control, Western blot, compound at 25 μM)","increase in the secretion of PAR-4 in the conditioned media (PAR-4 [2]; mouse embryonic fibroblast cells, compared to DMSO control, Western blot, compound at 25 μM)",stimulation of PAR-4 secretion (PAR-4 [3])
"CO/N=C(\C(=O)N[C@@H]1C(=O)N2C(C(=O)O)=C(COC(N)=O)CS[C@H]12)c1ccco1 [Cefuroxime, (6R, 7R)-3-{[(aminocarbonyl)oxy]methyl}-7-{[(2Z)-2-(2-furyl)-2-(methoxyimino)acetyl]amino}-8-oxo-5-thia-1-azabicyclo [4.2.0]oct-2-ene-2-carboxylic acid]",does not show toxicity,increased PAR-4 secretion,about 2 fold,4-5 fold,–
COc1ccc(C2=N[C@@H](c3ccc(Cl)cc3)[C@@H](c3ccc(Cl)cc3)N2C(=O)N2CCNC(=O)C2)c(OC(C)C)c1 [Nutlin-3a],–,–,–,–,stimulated PAR-4 secretion at micromolar levels
